# Like-named read-outs stand apart in the source and are kept apart here.
# Tests used:
# rat aorta = assay: Spasmolytic effect in isolated rat aorta; type: cell-based, male SD rat; conditions: 20 mM KCl contraction, 37° C., maximal inhibition with papaverine hydrochloride 10^-4 M = 100, mean value±standard error, n = 3, read-out: -log IC50 (spasmolytic effect on rat aorta contracted with 20 mM KCl) (converted)
# Procedure: (§1) 1. Spasmolytic effect in isolated rat aorta and dog coronary artery
# The thoracic aorta of male SD rat was isolated and cut into 3 mm wide ring preparations. Each preparation was mounted in a 10 ml organ bath filled with Krebs-Henseleit solution by applying a resting tension of 1.0 g. The nutrient solution was maintained at 37° C. and aerated with a 95% O2 /5% CO2 gas. The isometric tension of the preparation was measured with a FD pickup and recorded on a recorder.
# (§2) After about one hour of equilibration time, a compound of this invention was cumulatively administered to the preparation contracted with 20 mM KCl, and its spasmolytic effect was examined. The spasmolytic action of the compound of this invention was expressed as percentage of inhibition, taking the maximal inhibition obtained with papavarine hydrochloride (10^-4 M) as 100. The IC50 value (50% inhibition) for the compound of this invention was determined from the concentration-response curve fitted by non-linear regressions with a personal computer, and its potency expressed in terms of -log IC50 was shown as [mean value±standard error].
# dog coronary artery = assay: Spasmolytic effect in isolated dog coronary artery; type: cell-based, mongrel dogs; conditions: for spasmolytic effect on a contraction caused by 80 mM KCl (in words): potencies compared with 20 mM KCl; for IC50: Canis lupus familiaris, mean value±standard error
# Procedure: as §1, §2
# Ring preparations of coronary artery from mongrel dogs of either sex were prepared and isometric tension of the preparation was measured by the same method as above, except that the resting tension was adjusted to 1.5 g. For estimating the mechanism of action, the effect on the contraction caused by 80 mM KCl was also studied.
# guinea-pig trachea = assay: Bronchodilator effect in isolated tracheal smooth muscle (guinea-pig trachea, leukotriene D4 contraction); type: cell-based, Hartley male guinea-pigs
# Procedure: 2. Bronchodilator effect in isolated tracheal smooth muscle
# Hartley male guinea-pigs (NISSEIKEN) were stunned by a blow to the head and their tracheas were removed. Each trachea was carefully made into 20 small pieces so as not to injure them, and five pieces of them were linked together with a yarn to prepare tracheal strip chain. The preparation was suspended in 15 ml of an organ bath filled with a modified Krebs-Henseleitsolution containing indomethacin (b 5×10^-6 M) by applying a tension of 0.5 g. The solution was maintained at 35° C. and aerated with a 95% O2 /5% CO2 gas. After an equilibration time of one hour, the experiment was carried out. The results were isometrically recorded on a Multipen Recorder (R-64VL, mfd. by Rika Denki Kogyo) through a transducer (TD-112S, mfd. by Nihon Kohden) and an input box (JD-112S, mfd. by Nihon Kohden).
# Each preparation was made to attain the maximal contraction with carbachol (3×10^-6 and 10^-5 M) and washed. When it reached an equilibrium, it was exposed to L-cysteine as an aminopeptidase inhibitor (3×10^-3 M). After thirty minutes, a contractive reaction was made to take place with leukotriene D4 (3×10^-9 M). When the contraction had reached a constant value, a test drug (10^-8 to 3×10^-5 M) was cumulatively applied into the bath at a dose ratio of 3. Finally, the maximal relaxation of each preparation was confirmed with papaverine.
# The relaxations given by each test drug at various concentrations were converted to percentages of relaxation, taking the maximal relaxation obtained with papaverine as 100. The maximal relaxation (%) of each test drug and -log of ED30 (M) which is the dose of each test drug giving a percentage of relaxation of 30% as determined by a linear regression method from percentages of relaxation at two different doses are shown below.
# [1] = Acute toxicity in mice (up and down method); conditions: mouse, in vivo, iv
# Procedure: Acute toxicity of the test drug was evaluated in mice, following intravenous administration. The LD50 of the test drug was determined using up and down method.
# [2] = 20 mM KCl contraction, n = 3 (n = 4 for Compound No. 81), read-out: -log IC50 (spasmolytic effect on dog coronary artery, 20 mM KCl) (converted)
# [3] = 80 mM KCl contraction, n = 3, read-out: -log IC50 (spasmolytic effect on dog coronary artery, 80 mM KCl) (converted)
IC50 (rat aorta) [nM],SMILES,also measured
138,"CC1(C)C=C(n2cc(CO)ccc2=O)c2cc(C#N)ccc2O1 [Compound No. 162, 6-cyano-2,2-dimethyl-4-(1,2-dihydro-2-oxo-5-hydroxymethyl-1-pyridinyl)-2H-benzo[b]pyran]",–
12.6,"CC1(C)C=C(n2ccc(CCCO[N+](=O)[O-])cc2=O)c2cc(C#N)ccc2O1 [Compound No. 77, 6-cyano-2,2-dimethyl-4-{1,2-dihydro-2-oxo-4-(3-nitroxypropyl)-1-pyridinyl}-2H-benzo[b]pyran]","spasmolytic effect on a contraction caused by 80 mM KCl (in words) (dog coronary artery): also exhibited a spasmolytic effect on a contraction caused by 80 mM KCl, though their potencies are lower than those against the contraction caused by 20 mM KCl; IC50 (dog coronary artery; [2]): 2.14 nM; IC50 (dog coronary artery; [3]): 380 nM"
39.8,"CC1(C)C=C(n2ccc(CCCCO[N+](=O)[O-])cc2=O)c2cc(C#N)ccc2O1 [Compound No. 81, 6-cyano-2,2-dimethyl-4-{1,2-dihydro-2-oxo-4-(4-nitroxybutyl)-1-pyridinyl}-2H-benzo[b]pyran]","spasmolytic effect on a contraction caused by 80 mM KCl (in words) (dog coronary artery): also exhibited a spasmolytic effect on a contraction caused by 80 mM KCl, though their potencies are lower than those against the contraction caused by 20 mM KCl; IC50 (dog coronary artery; [2]): 0.0316 nM; IC50 (dog coronary artery; [3]): 229 nM"
5.89,"CC1(C)C=C(n2ccc(CO[N+](=O)[O-])cc2=O)c2cc(C(F)(F)F)ccc2O1 [Compound No. 105, 6-trifluoromethyl-2,2-dimethyl-4-(1,2-dihydro-2-oxo-4-nitroxymethyl-1-pyridinyl)-2H-benzo[b]pyran]",–
67.6,"CC(O[N+](=O)[O-])c1ccn(C2=CC(C)(C)Oc3ccc(C#N)cc32)c(=O)c1 (centres unmarked) [Compound No. 72, 6-cyano-2,2-dimethyl-4-{1,2-dihydro-2-oxo-4-(1-nitroxyethyl)-1-pyridinyl}-2H-benzo[b]pyran]",–
135,"CC1(C)C=C(n2cc(CO[N+](=O)[O-])ccc2=O)c2cc(C#N)ccc2O1 [Compound No. 70, 6-cyano-2,2-dimethyl-4-(1,2-dihydro-2-oxo-5-nitroxymethyl-1-pyridinyl)-2H-benzo[b]pyran]",–
60.3,"C=Cc1ccn(C2=CC(C)(C)Oc3ccc(C#N)cc32)c(=O)c1 [Compound No. 190, 6-cyano-2,2-dimethyl-4-(1,2-dihydro-2-oxo-4-vinyl-1-pyridinyl)-2H-benzo[b]pyran]",–
525,"CC1(C)C=C(n2ccc(CO)cc2=O)c2cc(C#N)ccc2O1 [Compound No. 161, 6-cyano-2,2-dimethyl-4-(1,2-dihydro-2-oxo-4-hydroxymethyl-1-pyridinyl)-2H-benzo[b]pyran]",–
1350,"CC1(C)C=C(n2ccc(CCCCO)cc2=O)c2cc(C#N)ccc2O1 [Compound No. 193, 6-cyano-2,2-dimethyl-4-{1,2-dihydro-2-oxo-4-(4-hydroxybutyl)-1-pyridinyl}-2H-benzo[b]pyran]",–
447,"CC1(C)C=C(n2ccc(C=O)cc2=O)c2cc(C#N)ccc2O1 [Compound No. 191, 6-cyano-2,2-dimethyl-4-(1,2-dihydro-2-oxo-4-formyl-1-pyridinyl)-2H-benzo[b]pyran]",–
1120,"CC1(C)C=C(n2ccc(CCCO)cc2=O)c2cc(C#N)ccc2O1 [Compound No. 192, 6-cyano-2,2-dimethyl-4-(1,2-dihydro-2-oxo-4-(3-hydroxypropyl)-1-pyridinyl}-2H-benzo[b]pyran]",–
51.3,"CC1(C)Oc2ccc(C#N)cc2[C@@H](n2ccc(CO[N+](=O)[O-])cc2=O)[C@@H]1O (relative stereo) [Compound No. 2, trans-3-hydroxy-6-cyano-3,4-dihydro-2,2-dimethyl-4-(1,2-dihydro-2-oxo-4-nitroxymethyl-1-pyridinyl)-2H-benzo[b]pyran]",–
813,"CC1(C)C=C(n2cccc(CO)c2=O)c2cc(C#N)ccc2O1 [Compound No. 160, 6-cyano-2,2-dimethyl-4-(1,2-dihydro-2-oxo-3-hydroxymethyl-1-pyridinyl)-2H-benzo[b]pyran]",–

SMILES,IC50 (rat aorta) [nM],also measured
"CC(=O)O[C@H]1[C@H](n2ccc(CO[N+](=O)[O-])cc2=O)c2cc(C#N)ccc2OC1(C)C (relative stereo) [Compound No. 44, trans-3-acetoxy-6-cyano-3,4-dihydro-2,2-dimethyl-4-(1,2-dihydro-2-oxo-4-nitroxymethyl-1-pyridinyl)-2H-benzo[b]pyran]",6610,–
"CC1(C)C=C(n2ccc(CO[N+](=O)[O-])cc2=O)c2cc(C#N)ccc2O1 [Compound No. 69, 6-cyano-2,2-dimethyl-4-(1,2-dihydro-2-oxo-4-nitroxymethyl-1-pyridinyl)-2H-benzo[b]pyran]",3.31,"EC30 (guinea-pig trachea; Cavia porcellus, leukotriene D4 (3×10^-9 M), dose giving 30% relaxation, papaverine maximal relaxation = 100, value is a negative log, read-out: Relaxing action on the contraction caused by leukotriene D4: -log[EX30 (M)] (converted)): 2.24e-07 M; Emax (guinea-pig trachea; Cavia porcellus, leukotriene D4 (3×10^-9 M), test drug 10^-8 to 3×10^-5 M cumulatively, papaverine maximal relaxation = 100, read-out: Relaxing action on the contraction caused by leukotriene D4: Maximal relaxation %): 93.9%; relaxant effect on isolated guinea pig tracheal smooth muscle contracted by leukotriene D4 / bronchodilator activity (in words) (guinea-pig trachea; leukotriene D4): strong relaxant effect; spasmolytic effect on a contraction caused by 80 mM KCl (in words) (dog coronary artery): also exhibited a spasmolytic effect on a contraction caused by 80 mM KCl, though their potencies are lower than those against the contraction caused by 20 mM KCl; IC50 (dog coronary artery; [2]): 8.71 nM; IC50 (dog coronary artery; [3]): 12600 nM; LD50 [1]: 81.2 mg/kg"
"CC1(C)C=C(n2ccc(C(CCO[N+](=O)[O-])O[N+](=O)[O-])cc2=O)c2cc(C#N)ccc2O1 (centres unmarked) [Compound No. 91, 6-cyano-2,2-dimethyl-4-{1,2-dihydro-2-oxo-4-(1,3-dinitroxypropyl)-1-pyridinyl}-2H-benzo[b]pyran]",102,–
